Test system: M. tuberculosis Erdman
Experiment: Pathogenic (BSL3) tuberculosis CFU assay
Format: cell-based
Settings: Mycobacterium tuberculosis, 96 h; for IC50: read-out: IC50 (CFU/mL at 96 hours); for IC90: read-out: IC90 (CFU/mL at 96 hours)

SMILES | IC50 | IC90
c1ccc(-c2nc3cc(Cc4ccc5[nH]c(-c6ccccn6)nc5c4)ccc3[nH]2)nc1 [Compound F0850-5995] | ~1.12 µM | 6.64 ± 3.86 µM
Cc1ccc(C)c(Nc2nc(NCc3ccccc3)c3ccccc3n2)c1 [Compound F0909-0124] | ~8.97 µM | 
C[C@@H](O)[C@H]1C(=O)N2C(C(=O)O)=C(S[C@@H]3CN[C@H](C(=O)N(C)C)C3)[C@H](C)[C@H]12 [Meropenem, meropenem, reference compound] | 0.697 ± 0.11 µg/mL | 1.16 ± 0.255 µg/mL

Source: paper PMC13129536 (The Journal of Biological Chemistry, 2026)
